Common to all, as to assay type: cell-based
One experiment concerns B16F10 Melanoma. Put plainly: Cytotoxicity assay (Cell Titer GLO, 72 hours), B16F10. As to conditions: Mus musculus, B16-F10, B16F10 Melanoma cells, cell viability by Cell Titer GLO, read-out: GC50 (the source's name). As for the experimental part: (§1) Cell lines used: CT26, B16F10 and NIH3T3
(§2) Concentration range of drug to be tested: 50 nM to 50 uM
(§3) Cells were plated in a 96 well plate and when they are about 50% confluent the drug was added in DMSO so that the final concentration of DMSO is 0.1% (v/v) of less and incubated for 72 hours. The cell viability is then determined using Cell Titer GLO.

The next experiment concerns CT26 Colon Cancer. Put plainly: Cytotoxicity assay (Cell Titer GLO, 72 hours), CT26. As to conditions: Mus musculus, CT26 Colon Cancer cells, cell viability by Cell Titer GLO, read-out: GC50 (the source's name). As for the experimental part:
as §1, §2, §3

The subject of the next experiment is NIH 3T3 Non-tumor. Put plainly: Cytotoxicity assay (Cell Titer GLO, 72 hours), NIH3T3. As to conditions: Mus musculus, NIH 3T3 Non-tumor cells, cell viability by Cell Titer GLO, read-out: GC50 (the source's name). As for the experimental part: as §1, §2, §3

Structures are written as SMILES.

The source of these data is US20190062272A1, “SMALL MOLECULES FOR IMMUNOGENIC TREATMENT OF CANCER” (Capten Therapeutics Inc., priority 2017, published 2019).

As for `C=CC(=O)NCCSc1ccc(O)c(O)c1` [Compound 10, N-[2-(3,4-dihydroxyphenyl)sulfanylethyl]propenamide], the IC50 with B16F10 Melanoma, with CT26 Colon Cancer and in the experiment with NIH 3T3 Non-tumor was > 50 µM each time.
As for `C=CC(=O)NCCSc1cc(O)ccc1O` [Compound 12, N-[2-(2,5-dihydroxyphenyl)sulfanylethyl]propenamide], the IC50 with B16F10 Melanoma is > 50 µM; in the experiment with CT26 Colon Cancer, 14.2 µM; with NIH 3T3 Non-tumor, 3.3 µM.
With `C=CC(=O)NCCSc1cccc(O)c1O` [Compound 14, N-[2-(2,3-dihydroxyphenyl)sulfanylethyl]propenamide], the results for the IC50 in the experiment on B16F10 Melanoma, with CT26 Colon Cancer and in the experiment on NIH 3T3 Non-tumor were 4.7 µM, 9.9 µM and > 50 µM, respectively.
